Our source for the viability, T/C and IC50 values is PubChem BioAssay AID2060627 (Molecular Pharmacology Branch, DTP, NCI, 2025).

Where “and” joins values, the source holds several entries; their conditions need not be identical. Equal entries are not always repeated. Where only a bound is given, the exact number is not on record here.

In the assay the test system is 156681-154-R-J1-PDC complex spheroid viability. Kind of assay: Anticancer human tumor 156681-154-R-J1-PDC patient-derived melanoma cell line growth inhibition [CLK]. The following applies: for viability, T/C: stronger effect = lower value. In short, it runs like this:
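Multi-cell-type spheroids combined patient-derived tumor cells with HUVEC endothelial cells and human mesenchymal stem cells. Paired agents were dosed in half-log steps down from about clinical Cmax, or from 10 microM where Cmax was unknown.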
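Note: spheroids exposed to the agents for seven days.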
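Throughout, for viability, T/C: 100% = DMSO vehicle control viability.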

Turning to `CC(CO)NC(=O)c1cc(-c2ccc(Cl)cc2)nn(-c2cnn(C)c2)c1=O` (stereo unspecified), the viability, T/C (compound 0.0316 µM) is 97.5% and 93.1%; the viability, T/C (compound 0.1 µM) is 73.8% and 82.1%; the viability, T/C (compound 0.316 µM) was 100% and 94.2%; the viability, T/C (compound 1 µM) was 94.3% and 99.3%; the viability, T/C (compound 3.16 µM) is 87.3% and 77.8%; the viability, T/C (compound 10 µM) is 51.8% and 58.1%. In addition, the IC50 (curve of compound) was above 10000 nM.

`CC1COCCN1c1cc(C2(S(C)(=N)=O)CC2)nc(-c2ccnc3[nH]ccc23)n1` (stereo unspecified) + CNC(=O)c1ccc(Nc2nc(OC3CCCC3)c3c(-c4ccc5nc(C)oc5c4)c[nH]c3n2)c(OC)c1: the IC50 reads like this: (curve of first compound, second compound 0.0316 µM) 1420 nM; (curve of first compound, second compound 0.1 µM) 846 nM; (curve of first compound, second compound 0.316 µM) 757 nM; (curve of first compound, second compound 1 µM) 600 nM; (curve of first compound, second compound 3.16 µM) 166 nM; (curve of first compound, second compound 10 µM) 43 nM. Moreover, the viability, T/C is, setting by setting: (second compound 0.0316 µM, first compound 0.0316 µM) 102%; (second compound 0.0316 µM, first compound 0.1 µM) 110%; (second compound 0.0316 µM, first compound 0.316 µM) 86.5%; (second compound 0.0316 µM, first compound 1 µM) 61%; (second compound 0.0316 µM, first compound 3.16 µM) 27.7%; (second compound 0.0316 µM, first compound 10 µM) 14.3%. The viability, T/C reads like this: (second compound 0.1 µM, first compound 0.0316 µM) 60%; (second compound 0.1 µM, first compound 0.1 µM) 76.3%; (second compound 0.1 µM, first compound 0.316 µM) 71.9%; (second compound 0.1 µM, first compound 1 µM) 45.1%; (second compound 0.1 µM, first compound 3.16 µM) 23.3%; (second compound 0.1 µM, first compound 10 µM) 13.1%. Besides, the viability, T/C was 68.1% (second compound 0.316 µM, first compound 0.0316 µM); 70.3% (second compound 0.316 µM, first compound 0.1 µM); 66.6% (second compound 0.316 µM, first compound 0.316 µM); 44.2% (second compound 0.316 µM, first compound 1 µM); 24.8% (second compound 0.316 µM, first compound 3.16 µM); 17.8% (second compound 0.316 µM, first compound 10 µM). In addition, the viability, T/C is, setting by setting: (second compound 1 µM, first compound 0.0316 µM) 63.4%; (second compound 1 µM, first compound 0.1 µM) 55.5%; (second compound 1 µM, first compound 0.316 µM) 54.7%; (second compound 1 µM, first compound 1 µM) 45.4%; (second compound 1 µM, first compound 3.16 µM) 16%; (second compound 1 µM, first compound 10 µM) 7.92%. Further, the viability, T/C runs as follows: (second compound 3.16 µM, first compound 0.0316 µM) 61.8%; (second compound 3.16 µM, first compound 0.1 µM) 49.1%; (second compound 3.16 µM, first compound 0.316 µM) 42.9%; (second compound 3.16 µM, first compound 1 µM) 43.4%; (second compound 3.16 µM, first compound 3.16 µM) 14.4%; (second compound 3.16 µM, first compound 10 µM) 8.47%. Further, the viability, T/C was 51.5% (second compound 10 µM, first compound 0.0316 µM); 47.3% (second compound 10 µM, first compound 0.1 µM); 30.1% (second compound 10 µM, first compound 0.316 µM); 30.7% (second compound 10 µM, first compound 1 µM); 15.5% (second compound 10 µM, first compound 3.16 µM); 7.43% (second compound 10 µM, first compound 10 µM).

With `CC(C)CC(NC(=O)C(Cc1ccccc1)NC(=O)c1cnccn1)B(O)O` (stereo unspecified), the viability, T/C was 26.8% and 12.1% (compound 0.000949 µM); 0.63% and 0.17% (compound 0.003 µM); 0.23% and 0.71% (compound 0.00949 µM); 0.23% and 2.41% (compound 0.03 µM); 0.31% and 0.16% (compound 0.0949 µM); 2.09% and 0.42% (compound 0.3 µM). The IC50 (curve of compound) was below 0.949 nM.

By viability, T/C is commonly meant the ratio of treated to control. The IC50 is the concentration that inhibits the measured activity by half.
